The subject of the assay is CK8+ luminal cells. Nature of the assay: Contralateral intraductal injection: FACS DNA content analysis of CK8+ luminal cells. Format: in vivo, mouse. The procedure: Nulliparous analysis was performed using adult (10-12-week-old) female mice. For timed pregnancies and lactation analysis, CD-1 pregnant adult females were obtained from Charles Rivers. Embryos were examined at the time of mammary gland harvesting to confirm pregnancy state. […] Plugged mice were considered to be PD0.5 on the day of the observed plug. All females used in this study were age matched. Mice were anesthetized with isoflurane (VetOne, 501017) Prior to intraductal injections, hair was removed from around the nipples using Nair hair remover. Injections into the duct of the nipple were performed with 33 G needles (Hamilton, 7803-05) and a volume of 40 μl per gland. Right inguinal, abdominal and thoracic glands were injected with doxorubicin (1.5 μg per gland, Cayman Chemical, 15007), nucleosides (40 μl per gland, Millipore-Sigma, ES-008-D) or Mk-1775 (50 μg per gland, Cayman Chemical, 21266), and left glands were injected with PBS or DMSO (Thermo Scientific, BP231) diluted in PBS. Mechanically dissociated inguinal, abdominal, and thoracic mammary fat pads were prepared into cell suspension for flow cytometry or fluorescence-activated cell sorting (FACS). The lymph node was removed from abdominal glands. Glands were chopped using a mechanical tissue chopper and digested for 1 h at 37° C. in digestion media [RPM1 containing 1% FBS, collagenase IA (Sigma, C9891), hyaluronidase (Sigma, H3506) and DNAse I (Worthington, LS002007)]. […] Tissue was further digested using pre-warmed 0.25% Trypsin-EDTA (Thermo Fisher, 25200056), washed, and digested with 5 mg/ml of pre-warmed dispase II (Roche, 4942078001). Red blood cells were lysed using Ammonium Chloride Solution (Stem Cell Technologies, 07850). Cells were washed, resuspended and filter through a 70 μm cell strainer (Falcon, 08-771-2) and processed for downstream applications. For DNA content analysis of the mammary gland CK8^+ epithelial population, mammary gland cells suspension was obtained as described above. Cells were fixed in ice-cold 70% EtOH at a final concentration of 10^6 cells/ml. During fixation, cells were vigorously vortexed for 1 min to avoid the formation of cell aggregates. Cells were washed twice with washing buffer [1×PBS containing 5% FBS and 0.5% tween 20 (Fisher Chemical, BP337500)] and centrifuged at 2,000 rpm for 5 min at 4° C. Cell pellet was incubated for 1 h at room temperature with anti-CK8 (Developmental Studies Hybridoma Lab, TROMA-1), anti-GFP (Thermo Fisher, A01704) or corresponding rat (Thermo-Fisher, 10700) or rabbit (Thermo-Fisher, 10500C) IgG isotype controls. Cells were washed twice and incubated for 1 h at room temperature in darkness with FITC anti-Rat (Thermo Fisher, A24544) or FITC anti-Rabbit (Thermo Fisher, A16030) and APC anti-Rat (Jackson ImmunoResearch, 712-136-153). Cells were washed twice and resuspended in propidium iodide solution [1×PBS containing 25 μg/ml of propidium iodide (Thermo Fisher, P3566) and 100 μg/ml of RNAse (Thermo Fisher, 12091021)]. For DNA content analysis on HC11, cells were washed with 1×DPBS (GIBCO, 14190-250) and harvested using 0.05% Trypsin-EDTA (GIBCO, 25300-062). Cell suspension was washed with 1×DPBS and centrifuged at 1,000 rpm for 5 min at 4° C. Cell pellet was fixed in ice-cold 70% EtOH and then vortexed vigorously to avoid cell aggregates. After fixation, cells were washed with washing buffer [1×PBS (GIBCO, 14190136) supplemented with 5% FBS] and centrifuged at 2,000 rpm for 5 min at 4° C. The pellet was resuspended in propidium iodide solution. Cell suspensions were filtered through a 70 μm cell strainer (Falcon, 08-771-2) and analyzed using a BD LSRII cytometer or a BD FACS Aria II Cell Sorter. Populations were analyzed using FlowJo.

Where [1] appears, read: Mk-1775 IDI at PD16.5 vs contralateral DMSO, by LD5.
The mark [2] stands for this setting: doxorubicin IDI at PD12.5 vs contralateral DMSO, MGs at PD17.5.

The structures appear in SMILES notation.

Consider `C=CCn1c(=O)c2cnc(Nc3ccc(N4CCN(C)CC4)cc3)nc2n1-c1cccc(C(C)(C)O)n1` [Mk-1775], for which the “decrease in 4C CK8+ population (in the overall population)” value by setting is: (Mk-1775 IDI (50 μg per gland) at PD16.5 vs contralateral DMSO, at LD2) 19.4%; under setting [1], 3.2%. Also, the “increase in 2C CK8+ population (in the overall population)” value reads like this: (Mk-1775 IDI at PD16.5 vs contralateral DMSO, LD2) 7.7%; (Mk-1775 IDI at PD16.5 vs contralateral DMSO, LD5) 12.4%. Besides, the “decrease in >4C CK8+ population (in the overall population)” value under setting [1] is recorded as 16.31%.
For the compound `COc1cccc2c1C(=O)c1c(O)c3c(c(O)c1C2=O)C[C@@](O)(C(=O)CO)C[C@@H]3O[C@H]1C[C@H](N)[C@H](O)[C@H](C)O1` [doxorubicin], under setting [2], the “decrease in 2C luminal population (in the overall population)” value was 5.23%, the “increase in 4C luminal population (in the overall population)” value is recorded as 14.86% and the “increase in >4C luminal population (in the overall population)” value is on record as 47.1%.

These data come from patent US20240374626A1, “METHODS OF ENHANCING MILK PRODUCTION IN LACTATING MAMMALIAN SUBJECTS” (priority 2023, published 2024).
